Data published in the NIST ThermoML archive (doi:10.1016/j.jct.2005.02.004).
± gives the expanded uncertainty stated by the source.

Assay: mn = molality of the nth substance listed, in mol/kg
Details: Liquid, Vibrating tube method

[Br-].[Br-].[Zn+2] [zinc bromide] + CO
Details	mass density [kg/m3]
298.27 K, 175 kPa, m1 = 0.7158	902.32 ± 0.43
298.27 K, 206 kPa, m1 = 0.3785	853.39 ± 0.44
298.27 K, 206 kPa, m1 = 1.951	1072.66 ± 0.44
298.27 K, 4983 kPa, m1 = 1.951	1077.46 ± 0.44
298.27 K, 4990 kPa, m1 = 0.3785	858.17 ± 0.45
298.27 K, 4998 kPa, m1 = 0.7158	907.05 ± 0.44
298.27 K, 9995 kPa, m1 = 1.951	1082.31 ± 0.44
298.27 K, 10009 kPa, m1 = 0.7158	911.75 ± 0.44
298.27 K, 10013 kPa, m1 = 0.3785	862.94 ± 0.45
298.27 K, 14985 kPa, m1 = 0.7158	916.21 ± 0.44
298.27 K, 14995 kPa, m1 = 0.3785	867.44 ± 0.46
298.27 K, 15001 kPa, m1 = 1.951	1087.02 ± 0.45
298.27 K, 19983 kPa, m1 = 1.951	1091.45 ± 0.45
298.27 K, 19984 kPa, m1 = 0.3785	871.75 ± 0.47
298.27 K, 19989 kPa, m1 = 0.7158	920.51 ± 0.44
298.27 K, 24990 kPa, m1 = 1.951	1095.81 ± 0.46
298.27 K, 25018 kPa, m1 = 0.3785	875.78 ± 0.47
298.27 K, 25019 kPa, m1 = 0.7158	924.66 ± 0.45
298.27 K, 29988 kPa, m1 = 0.3785	879.71 ± 0.48
298.27 K, 29996 kPa, m1 = 1.951	1100.02 ± 0.46
298.27 K, 34982 kPa, m1 = 0.3785	883.51 ± 0.49
298.27 K, 34985 kPa, m1 = 0.7158	932.44 ± 0.45
298.27 K, 34998 kPa, m1 = 1.951	1104.11 ± 0.47
298.27 K, 35000 kPa, m1 = 0.7158	932.43 ± 0.45
298.27 K, 39992 kPa, m1 = 0.7158	936.16 ± 0.45
298.27 K, 40008 kPa, m1 = 0.3785	887.18 ± 0.49
298.27 K, 40010 kPa, m1 = 1.951	1108.09 ± 0.48
298.28 K, 200 kPa, m1 = 0.05772	797.74 ± 0.45
298.28 K, 4999 kPa, m1 = 0.05772	802.42 ± 0.46
298.28 K, 9984 kPa, m1 = 0.05772	807.04 ± 0.47
298.28 K, 14988 kPa, m1 = 0.05772	811.39 ± 0.48
298.28 K, 19994 kPa, m1 = 0.05772	815.58 ± 0.5
298.28 K, 24988 kPa, m1 = 0.05772	819.58 ± 0.51
298.28 K, 29998 kPa, m1 = 0.05772	823.42 ± 0.52
298.28 K, 34981 kPa, m1 = 0.05772	827.09 ± 0.54
298.28 K, 40008 kPa, m1 = 0.05772	830.66 ± 0.55
323.22 K, 212 kPa, m1 = 0.7158	876.52 ± 0.44
323.22 K, 228 kPa, m1 = 0.3785	828.32 ± 0.45
323.22 K, 230 kPa, m1 = 0.05772	773.97 ± 0.45
323.22 K, 245 kPa, m1 = 1.951	1042.34 ± 0.43
323.22 K, 4983 kPa, m1 = 0.3785	833.75 ± 0.45
323.22 K, 4994 kPa, m1 = 0.05772	779.33 ± 0.46
323.22 K, 5004 kPa, m1 = 1.951	1047.72 ± 0.43
323.22 K, 5010 kPa, m1 = 0.7158	881.93 ± 0.44
323.22 K, 9982 kPa, m1 = 1.951	1053.09 ± 0.44
323.22 K, 9993 kPa, m1 = 0.3785	839.12 ± 0.46
323.22 K, 9999 kPa, m1 = 0.7158	887.26 ± 0.44
323.22 K, 10015 kPa, m1 = 0.05772	784.65 ± 0.48
323.22 K, 14987 kPa, m1 = 1.951	1058.26 ± 0.44
323.22 K, 14997 kPa, m1 = 0.05772	789.6 ± 0.49
323.22 K, 14997 kPa, m1 = 0.3785	844.21 ± 0.47
323.22 K, 15018 kPa, m1 = 0.7158	892.34 ± 0.45
323.22 K, 19990 kPa, m1 = 0.3785	849.04 ± 0.47
323.22 K, 19994 kPa, m1 = 0.7158	897.14 ± 0.45
323.22 K, 20007 kPa, m1 = 0.05772	794.31 ± 0.5
323.22 K, 20009 kPa, m1 = 1.951	1063.24 ± 0.44
323.22 K, 24981 kPa, m1 = 0.7158	901.73 ± 0.45
323.22 K, 24985 kPa, m1 = 0.05772	798.77 ± 0.52
323.22 K, 24994 kPa, m1 = 0.3785	853.6 ± 0.48
323.22 K, 24998 kPa, m1 = 1.951	1068 ± 0.45
323.22 K, 29987 kPa, m1 = 0.7158	906.15 ± 0.46
323.22 K, 29997 kPa, m1 = 1.951	1072.61 ± 0.45
323.22 K, 30012 kPa, m1 = 0.05772	803.09 ± 0.54
323.22 K, 30016 kPa, m1 = 0.3785	857.92 ± 0.49
323.22 K, 34994 kPa, m1 = 0.7158	910.38 ± 0.46
323.22 K, 34996 kPa, m1 = 0.05772	807.14 ± 0.55
323.22 K, 34997 kPa, m1 = 0.3785	862.1 ± 0.5
323.22 K, 35003 kPa, m1 = 1.951	1077.08 ± 0.46
323.22 K, 39988 kPa, m1 = 0.3785	866.11 ± 0.51
323.22 K, 39997 kPa, m1 = 0.7158	914.47 ± 0.46
323.22 K, 39998 kPa, m1 = 0.05772	811.05 ± 0.57
323.22 K, 40001 kPa, m1 = 1.951	1081.4 ± 0.46
348.23 K, 311 kPa, m1 = 0.3785	802.57 ± 0.45
348.23 K, 316 kPa, m1 = 0.7158	850.07 ± 0.44
348.23 K, 4989 kPa, m1 = 0.7158	856.15 ± 0.44
348.23 K, 5006 kPa, m1 = 0.3785	808.74 ± 0.45
348.23 K, 9999 kPa, m1 = 0.3785	814.86 ± 0.46
348.23 K, 10009 kPa, m1 = 0.7158	862.27 ± 0.45
348.23 K, 14998 kPa, m1 = 0.7158	868 ± 0.45
348.23 K, 15007 kPa, m1 = 0.3785	820.6 ± 0.47
348.23 K, 19987 kPa, m1 = 0.3785	825.97 ± 0.48
348.23 K, 19998 kPa, m1 = 0.7158	873.4 ± 0.46
348.23 K, 24998 kPa, m1 = 0.3785	831.08 ± 0.49
348.23 K, 25006 kPa, m1 = 0.7158	878.54 ± 0.46
348.23 K, 29987 kPa, m1 = 0.7158	883.42 ± 0.47
348.23 K, 29988 kPa, m1 = 0.3785	835.92 ± 0.51
348.23 K, 34986 kPa, m1 = 0.7158	888.06 ± 0.47
348.23 K, 35004 kPa, m1 = 0.3785	840.55 ± 0.52
348.23 K, 40002 kPa, m1 = 0.7158	892.55 ± 0.48
348.23 K, 40007 kPa, m1 = 0.3785	844.98 ± 0.53
